Values quoted from earlier work, collected in article PMC5589927, “Visualization of ligand-induced dopamine D2S and D2L receptor internalization by TIRF microscopy” (Scientific Reports, 2017).

Key:
D2L receptors = conditions: stably transfected CHO cells, ref 46 (Itokawa et al.)
D2S receptors = conditions: stably transfected CHO cells, ref 46 (Itokawa et al.)

internalization of D2L (D2L receptors; after incubation with agonist): 22% | half-life of decrease D2L (D2L receptors): 33 min | surface expressed D2S receptors unavailable for [3H]sulpiride (internalization) (D2S receptors; after incubation with agonist): about 44% | half-life of decrease D2S (D2S receptors): 19 min
Structure (SMILES): NCCc1ccc(O)c(O)c1 [dopamine]
